{
  "source": "patent US20160175250A1",
  "about": "“Method for Making Liposomes Containing an Active Pharmaceutical Ingredient” (Tolmar Inc., priority 2014, published 2016)",
  "origin": "cited, not measured here",
  "conditions": "patients receiving doses greater than 550 mg per square meter of body area",
  "data": [
    {"smiles": "COc1cccc2c1C(=O)c1c(O)c3c(c(O)c1C2=O)C[C@@](O)(C(=O)CO)C[C@@H]3O[C@H]1C[C@H](N)[C@H](O)[C@H](C)O1", "note": "[doxorubicin, Doxorubicin]", "values": [
      {"measurement": "congestive heart failure from cumulative dose dependent irreversible cardiomyopathy, share of patients", "result": "1-10%"}
    ]}
  ]
}
